26 compounds from patent US8980888B2, “Pyrazole derivative” (Mochida Pharmaceutical Co., Ltd., priority 2013, dated 2015) can be followed below.

The target of the assay is T1, Human PDE10 (Homo sapiens, UniProt Q9Y233).
T1 construct: purchased BPA Bioscience (so in the source)
Description: Human PDE10 inhibitory effect (IMAP TR-FRET enzyme inhibition assay). In kind it is biochemical. As to conditions: PDE10 inhibitory activity, cAMP substrate. As to the method: (Evaluation of Enzyme Inhibitory Activity: Human PDE10 Inhibitory Effect)
IMAP TR-FRET Phosphodiersterase Evaluation Assay Kit (Molecular Device) was used for the measurement. Ten μL of a diluted test compound having each concentration and 5 μL of the enzyme PDE10 (BPA Bioscience) that had been diluted to 2 ng/mL with 1×IMAP Reaction Buffer (prepared with 5× included with the kit, 10 mM Tris-HCl, pH=7.2, 10 mM MgCl2, 0.05% NaN3, and 0.1% BSA) containing 0.1% BSA were added to a 384-well plate (Corning). The obtained mixture was then pre-incubated at room temperature for 5 minutes. Thereafter, 5 μL of cAMP substrate solution which was included with the kit and diluted to 400 nM with 1×IMAP Reaction Buffer containing 0.1% BSA, was added to the reaction solution, and the obtained mixture was reacted at room temperature for 60 minutes. Thereafter, 60 μL of an IMAP TR-FRET Binding solution included with the kit was further added to the reaction solution, and the obtained mixture was then left for 3 hours or more. Subsequently, using ARVO SX (PerkinElmer), the fluorescent intensity of Terbium (Emission=490 nm) and TR-FRET (Emission=520 nm) in the reaction solution were measured at an excitation wavelength of 340 nm, so as to calculate the amount of the generated 5′-AMP. The count of a well to which a solvent had been added instead of the test compound was set at 0%, and the count of a well to which the enzyme PDE10 had not been added was set at 100%. Thus, the inhibitory activity of each test compound was calculated.
The PDE10 inhibitory activity of the test compound was indicated with an IC50 value. […] The test compounds are shown in Table 3 (Table 3-1 and Table 3-2).
Background: TR-FRET usually uses a lanthanide donor and a delayed reading to cut background.

Usually IC50 stands for the concentration that gives 50% inhibition. The low end stands for greater potency in that assay, the high end for weaker potency in that assay.

T1 sequence (Q9Y233 whole entry): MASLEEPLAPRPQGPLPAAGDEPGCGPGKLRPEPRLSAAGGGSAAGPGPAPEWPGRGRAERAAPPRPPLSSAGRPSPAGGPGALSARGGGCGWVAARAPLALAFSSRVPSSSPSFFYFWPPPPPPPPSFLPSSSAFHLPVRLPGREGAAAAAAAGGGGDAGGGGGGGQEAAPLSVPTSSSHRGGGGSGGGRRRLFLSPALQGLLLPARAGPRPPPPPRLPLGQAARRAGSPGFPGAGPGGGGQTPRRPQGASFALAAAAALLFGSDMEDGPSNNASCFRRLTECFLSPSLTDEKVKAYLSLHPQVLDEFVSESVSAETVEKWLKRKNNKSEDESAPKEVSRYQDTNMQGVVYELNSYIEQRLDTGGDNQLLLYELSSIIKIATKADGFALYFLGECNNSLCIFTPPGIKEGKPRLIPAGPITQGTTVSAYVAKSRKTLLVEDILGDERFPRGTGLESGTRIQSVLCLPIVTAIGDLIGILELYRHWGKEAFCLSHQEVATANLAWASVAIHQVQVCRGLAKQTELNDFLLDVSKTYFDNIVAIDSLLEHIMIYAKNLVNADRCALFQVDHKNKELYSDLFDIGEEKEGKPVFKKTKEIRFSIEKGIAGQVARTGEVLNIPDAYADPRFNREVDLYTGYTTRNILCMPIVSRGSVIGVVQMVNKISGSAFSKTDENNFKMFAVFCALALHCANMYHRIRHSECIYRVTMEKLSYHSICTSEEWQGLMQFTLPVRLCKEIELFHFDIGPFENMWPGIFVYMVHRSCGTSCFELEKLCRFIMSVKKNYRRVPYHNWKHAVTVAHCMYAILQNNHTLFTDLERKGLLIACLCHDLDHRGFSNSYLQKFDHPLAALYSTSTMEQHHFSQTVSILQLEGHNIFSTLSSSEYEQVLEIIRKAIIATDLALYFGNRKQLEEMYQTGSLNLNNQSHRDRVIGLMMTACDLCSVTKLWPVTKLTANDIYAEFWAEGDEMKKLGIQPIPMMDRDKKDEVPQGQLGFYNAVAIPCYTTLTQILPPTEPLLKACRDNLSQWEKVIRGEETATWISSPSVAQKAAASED

Regarding `Cn1ncc(-c2nc(C(F)(F)F)cs2)c1C(=O)NC1CCn2nc(-c3ccccc3)nc2C1` (centres unmarked) [Example 5.9], the half-inhibitory concentration (IC50) fell in the range of 5 to 100 nM. With `Cn1ncc(-c2cc(F)ccn2)c1C(=O)NC1CCn2nc(-c3ccccc3)nc2C1` (centres unmarked) [Example 5.23, 4-(4-fluoropyridin-2-yl)-1-methyl-N-(2-phenyl-5,6,7,8-tetrahydro-[1,2,4]triazolo[1,5-a]pyridin-7-yl)-1H-pyrazole-5-carboxamide] the figure was 5 to 100 nM; with `Cc1sc(-c2cnn(C)c2C(=O)NC2CCn3cc(-c4cccc(F)c4)nc3C2)nc1C(F)F` (centres unmarked) [Example 2.7, 4-(4-(difluoromethyl)-5-methylthiazol-2-yl)-N-(2-(3-fluorophenyl)-5,6,7,8-tetrahydroimidazo[1,2-a]pyridin-7-yl)-1-methyl-1H-pyrazole-5-carboxamide], less than 5 nM; with `Cc1nc(-c2cnn(C)c2C(=O)NC2CCn3nc(-c4ccccc4)nc3C2)sc1C` (centres unmarked) [Example 5.4, 4-(4,5-dimethylthiazol-2-yl)-1-methyl-N-(2-phenyl-5,6,7,8-tetrahydro-[1,2,4]triazolo[1,5-a]pyridin-7-yl)-1H-pyrazole-5-carboxamide], less than 5 nM. To `Cc1csc(-c2cnn(C)c2C(=O)NC2CCn3cc(-c4ccccc4)nc3C2)n1` (centres unmarked) [Example 2.1, 1-methyl-4-(4-methylthiazol-2-yl)-N-(2-phenyl-5,6,7,8-tetrahydroimidazo[1,2-a]pyridin-7-yl)-1H-pyrazole-5-carboxamide] belongs less than 5 nM; to `Cn1ncc(-c2nc(C(F)F)c(Cl)s2)c1C(=O)Nc1ccn2nc(-c3ccccc3)nc2c1` [Example 3.20, 4-(5-chloro-4-(difluoromethyl)thiazol-2-yl)-1-methyl-N-(2-phenyl-[1,2,4]triazolo[1,5-a]pyridin-7-yl)-1H-pyrazole-5-carboxamide], less than 5 nM; to `CC(=O)c1sc(C)nc1-c1cnn(C)c1C(=O)NC1CCn2nc(-c3cccc(F)c3)nc2C1` (centres unmarked) [Example 5.44, 4-(5-acetyl-2-methylthiazol-4-yl)-N-(2-(3-fluorophenyl)-5,6,7,8-tetrahydro-[1,2,4]triazolo[1,5-a]pyridin-7-yl)-1-methyl-1H-pyrazole-5-carboxamide], 5 to 100 nM.

`C[C@H]1CCCN1c1nc2cc(NC(=O)c3c(-c4nc(C(F)F)cs4)cnn3C)ccn2n1` [Example 4.1, (S)-4-(4-(difluoromethyl)thiazol-2-yl)-1-methyl-N-(2-(2-methylpyrrolidin-1-yl)-[1,2,4]triazolo[1,5-a]pyridin-7-yl)-1H-pyrazole-5-carboxamide] displayed a 50% inhibitory concentration (IC50) of less than 5 nM.

In turn, `Cc1cccc(-c2cnn(C)c2C(=O)Nc2cc3nc(-c4ccccc4)nn3cc2F)n1` [Example 3.3, N-(6-fluoro-2-phenyl-[1,2,4]triazolo[1,5-a]pyridin-7-yl)-1-methyl-4-(6-methylpyridin-2-yl)-1H-pyrazole-5-carboxamide] came in with an IC50 of less than 5 nM. Consider `CCc1nnc(-c2cnn(C)c2C(=O)NC2CCn3nc(-c4ccccc4)nc3C2)s1` (centres unmarked) [Example 5.12, 4-(5-ethyl-1,3,4-thiadiazol-2-yl)-1-methyl-N-(2-phenyl-5,6,7,8-tetrahydro-[1,2,4]triazolo[1,5-a]pyridin-7-yl)-1H-pyrazole-5-carboxamide], for which the concentration for half-maximal inhibition (IC50) was in the range of 5 to 100 nM.

Compound `Cc1ccnc(-c2cnn(C)c2C(=O)NC2CCn3cc(-c4cccc(F)c4)nc3C2)n1` (centres unmarked) [Example 2.23, N-(2-(3-fluorophenyl)-5,6,7,8-tetrahydroimidazo[1,2-a]pyridin-7-yl)-1-methyl-4-(4-methylpyrimidin-2-yl)-1H-pyrazole-5-carboxamide] came in with an IC50 of 5 to 100 nM. With `Cc1ccnc(-c2cnn(C)c2C(=O)Nc2ccn3nc(N4CCCC4)nc3c2)c1` [Example 4.30, 1-methyl-4-(4-methylpyridin-2-yl)-N-(2-(pyrrolidin-1-yl)-[1,2,4]triazolo[1,5-a]pyridin-7-yl)-1H-pyrazole-5-carboxamide] the figure was less than 5 nM.

With `Cc1ccnc(-c2cnn(C)c2C(=O)Nc2cc3nc(-c4ccccc4)nn3cc2F)c1` [Example 3.5, N-(6-fluoro-2-phenyl-[1,2,4]triazolo[1,5-a]pyridin-7-yl)-1-methyl-4-(4-methylpyridin-2-yl)-1H-pyrazole-5-carboxamide], the IC50 is less than 5 nM. With `Cc1nc(-c2cnn(C)c2C(=O)NC2CCn3cc(-c4ccccc4)nc3C2)sc1C` (centres unmarked) [Example 2.2, 4-(4,5-dimethylthiazol-2-yl)-1-methyl-N-(2-phenyl-5,6,7,8-tetrahydroimidazo[1,2-a]pyridin-7-yl)-1H-pyrazole-5-carboxamide] the figure was less than 5 nM; with `CC(=O)c1sc(C)nc1-c1cnn(C)c1C(=O)NC1CCn2nc(-c3ccccc3)nc2C1` (centres unmarked) [Example 5.30, 4-(5-acetyl-2-methylthiazol-4-yl)-1-methyl-N-(2-phenyl-5,6,7,8-tetrahydro-[1,2,4]triazolo[1,5-a]pyridin-7-yl)-1H-pyrazole-5-carboxamide], 5 to 100 nM; with `Cc1ccnc(-c2cnn(C)c2C(=O)NC2CCn3cc(-c4ccccc4)nc3C2)n1` (centres unmarked) [Example 2.16, 1-methyl-4-(4-methylpyrimidin-2-yl)-N-(2-phenyl-5,6,7,8-tetrahydroimidazo[1,2-a]pyridin-7-yl)-1H-pyrazole-5-carboxamide], 5 to 100 nM.

`Cc1nc(-c2cnn(C)c2C(=O)NC2CCn3nc(-c4ccc(F)cc4)nc3C2)sc1C1CC1` (centres unmarked) [Example 5.43, 4-(5-cyclopropyl-4-methylthiazol-2-yl)-N-(2-(4-fluorophenyl)-5,6,7,8-tetrahydro-[1,2,4]triazolo[1,5-a]pyridin-7-yl)-1-methyl-1H-pyrazole-5-carboxamide] displayed an IC50 of 5 to 100 nM. Regarding `C[C@H]1CCCN1c1nc2cc(NC(=O)c3c(-c4cccc(C(F)(F)F)n4)cnn3C)ccn2n1` [Example 4.3, (S)-1-methyl-N-(2-(2-methylpyrrolidin-1-yl)-[1,2,4]triazolo[1,5-a]pyridin-7-yl)-4-(6-(trifluoromethyl)pyridin-2-yl)-1H-pyrazole-5-carboxamide], the IC50 is less than 5 nM. In the case of `Cc1nnc(-c2cnn(C)c2C(=O)NC2CCn3cc(-c4cc(F)ccc4F)nc3C2)s1` (centres unmarked) [Example 2.18, N-(2-(2,5-difluorophenyl)-5,6,7,8-tetrahydroimidazo[1,2-a]pyridin-7-yl)-1-methyl-4-(5-methyl-1,3,4-thiadiazol-2-yl)-1H-pyrazole-5-carboxamide], the IC50 lay in the range of 5 to 100 nM. With `Cn1ncc(-c2nc(C(F)F)c(C3CC3)s2)c1C(=O)NC1CCn2nc(-c3cccc(F)c3)nc2C1` (centres unmarked) [Example 5.42, 4-(5-cyclopropyl-4-(difluoromethyl)thiazol-2-yl)-N-(2-(3-fluorophenyl)-5,6,7,8-tetrahydro-[1,2,4]triazolo[1,5-a]pyridin-7-yl)-1-methyl-1H-pyrazole-5-carboxamide] the figure was 5 to 100 nM. `COc1ccnc(-c2cnn(C)c2C(=O)NC2CCn3nc(-c4ccccc4)nc3C2)c1` (centres unmarked) [Example 5.25, 4-(4-methoxypyridin-2-yl)-1-methyl-N-(2-phenyl-5,6,7,8-tetrahydro-[1,2,4]triazolo[1,5-a]pyridin-7-yl)-1H-pyrazole-5-carboxamide] yielded a half-inhibitory concentration (IC50) of 5 to 100 nM. With `Cc1nnc(-c2cnn(C)c2C(=O)NC2CCn3cc(-c4ccccc4)nc3C2)s1` (centres unmarked) [Example 2.10, 1-methyl-4-(5-methyl-1,3,4-thiadiazol-2-yl)-N-(2-phenyl-5,6,7,8-tetrahydroimidazo[1,2-a]pyridin-7-yl)-1H-pyrazole-5-carboxamide] the figure was less than 5 nM; with `Cn1ncc(-c2cccc(C(F)(F)F)n2)c1C(=O)Nc1cc2nc(-c3ccccc3)nn2cc1F` [Example 3.10, N-(6-fluoro-2-phenyl-[1,2,4]triazolo[1,5-a]pyridin-7-yl)-1-methyl-4-(6-(trifluoromethyl)pyridin-2-yl)-1H-pyrazole-5-carboxamide], less than 5 nM; with `Cc1nc(-c2cnn(C)c2C(=O)NC2CCn3nc(-c4ccc(F)cc4)nc3C2)c(C)s1` (centres unmarked) [Example 5.28, 4-(2,5-dimethylthiazol-4-yl)-N-(2-(4-fluorophenyl)-5,6,7,8-tetrahydro-[1,2,4]triazolo[1,5-a]pyridin-7-yl)-1-methyl-1H-pyrazole-5-carboxamide], 5 to 100 nM. With `Cc1sc(-c2cnn(C)c2C(=O)NC2CCn3nc(-c4ccccc4)nc3C2)nc1C(F)F` (centres unmarked) [Example 5.1, 4-(4-(difluoromethyl)-5-methylthiazol-2-yl)-1-methyl-N-(2-phenyl-5,6,7,8-tetrahydro-[1,2,4]triazolo[1,5-a]pyridin-7-yl)-1H-pyrazole-5-carboxamide] the figure was less than 5 nM; with `Cc1csc(-c2cnn(C)c2C(=O)NC2CCn3nc(-c4ccccc4)nc3C2)n1` (centres unmarked) [Example 5.18, 1-methyl-4-(4-methylthiazol-2-yl)-N-(2-phenyl-5,6,7,8-tetrahydro-[1,2,4]triazolo[1,5-a]pyridin-7-yl)-1H-pyrazole-5-carboxamide], 5 to 100 nM.
